Laboratory results reported in US12522601B2, “1,3,4-oxadiazole derivative compounds as histone deacetylase 6 inhibitor, and the pharmaceutical composition comprising the same” (CHONG KUN DANG PHARMACEUTICAL CORP., priority 2020, dated 2026).

What was measured:
human recombinant HDAC1 = biological target: T1, human recombinant HDAC1 (Homo sapiens, UniProt Q13547); experiment: In vitro HDAC enzyme activity inhibition assay, HDAC1 (HDAC Fluorimetric Drug Discovery Kit); type: biochemical; settings: human recombinant HDAC1, Fluor de Lys-SIRT1 substrate 10 μM, 30° C. for 60 minutes
T1 construct: purchased Enzo Life Sciences, Inc. BML-SE456
T1 sequence (Q13547 whole entry): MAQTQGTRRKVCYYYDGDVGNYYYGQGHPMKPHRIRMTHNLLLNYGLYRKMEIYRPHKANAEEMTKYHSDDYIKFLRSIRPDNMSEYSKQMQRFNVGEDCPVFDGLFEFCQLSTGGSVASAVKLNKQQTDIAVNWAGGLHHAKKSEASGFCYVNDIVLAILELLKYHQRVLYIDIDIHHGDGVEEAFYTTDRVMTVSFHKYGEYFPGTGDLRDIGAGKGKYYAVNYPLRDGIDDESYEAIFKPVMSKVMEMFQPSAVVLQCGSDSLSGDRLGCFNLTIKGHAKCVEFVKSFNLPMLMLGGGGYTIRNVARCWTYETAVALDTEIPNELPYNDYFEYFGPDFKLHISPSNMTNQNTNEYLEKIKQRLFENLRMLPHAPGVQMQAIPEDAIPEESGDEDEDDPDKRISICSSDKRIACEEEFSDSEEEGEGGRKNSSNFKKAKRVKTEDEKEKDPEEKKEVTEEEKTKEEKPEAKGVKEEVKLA
Procedure, shortened: (§1)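 Fluorimetric deacetylase kit; 0.3 μg human recombinant enzyme with 10 μM Fluor de Lys-SIRT1 substrate, 60 min at 30° C, then developer 30 min. Fluorescence read at Ex 360/Em 460; IC50 from 5-fold compound dilutions. HDAC1 and HDAC6 run by the same protocol.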

human recombinant HDAC6 = biological target: T2, human recombinant HDAC6 (Homo sapiens, UniProt Q9UBN7); experiment: In vitro HDAC enzyme activity inhibition assay, HDAC6 (HDAC Fluorimetric Drug Discovery Kit); type: biochemical; settings: for HDAC6 Selectivity (fold): HDAC6 versus HDAC1; for IC50: human recombinant HDAC6, same protocol as the HDAC1 test
T2 construct: purchased Calbiochem Inc. 382180
T2 sequence (Q9UBN7 1-1215): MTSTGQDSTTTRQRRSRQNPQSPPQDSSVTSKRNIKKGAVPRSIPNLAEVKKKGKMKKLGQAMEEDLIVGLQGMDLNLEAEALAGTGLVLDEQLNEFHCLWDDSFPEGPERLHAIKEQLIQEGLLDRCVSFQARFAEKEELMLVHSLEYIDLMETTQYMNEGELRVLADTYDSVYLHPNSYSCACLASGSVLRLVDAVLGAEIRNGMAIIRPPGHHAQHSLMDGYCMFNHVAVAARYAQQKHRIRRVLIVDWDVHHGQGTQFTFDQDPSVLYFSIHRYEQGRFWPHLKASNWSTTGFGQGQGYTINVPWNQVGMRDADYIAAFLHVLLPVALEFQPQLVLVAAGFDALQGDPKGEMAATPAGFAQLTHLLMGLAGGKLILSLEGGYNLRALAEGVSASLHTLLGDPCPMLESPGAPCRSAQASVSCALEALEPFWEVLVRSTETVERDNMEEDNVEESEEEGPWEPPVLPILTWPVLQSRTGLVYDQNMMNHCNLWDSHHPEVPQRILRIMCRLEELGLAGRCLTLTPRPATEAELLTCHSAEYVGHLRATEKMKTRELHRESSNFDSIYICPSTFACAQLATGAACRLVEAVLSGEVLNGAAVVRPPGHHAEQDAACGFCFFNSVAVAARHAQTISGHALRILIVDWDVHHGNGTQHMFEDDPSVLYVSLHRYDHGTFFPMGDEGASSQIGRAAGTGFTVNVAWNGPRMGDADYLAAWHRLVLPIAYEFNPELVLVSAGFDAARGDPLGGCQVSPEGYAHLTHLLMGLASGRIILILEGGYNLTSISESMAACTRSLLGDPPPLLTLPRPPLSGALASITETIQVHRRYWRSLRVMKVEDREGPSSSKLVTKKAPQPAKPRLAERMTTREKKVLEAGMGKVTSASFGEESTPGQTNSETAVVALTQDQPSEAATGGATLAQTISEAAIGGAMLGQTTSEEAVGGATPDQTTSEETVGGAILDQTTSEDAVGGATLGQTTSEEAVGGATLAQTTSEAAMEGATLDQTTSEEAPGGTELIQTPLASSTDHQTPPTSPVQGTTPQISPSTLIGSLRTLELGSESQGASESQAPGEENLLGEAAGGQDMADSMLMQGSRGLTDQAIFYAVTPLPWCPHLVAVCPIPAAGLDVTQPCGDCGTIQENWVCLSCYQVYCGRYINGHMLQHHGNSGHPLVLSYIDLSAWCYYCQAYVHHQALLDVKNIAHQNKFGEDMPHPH
Procedure, shortened: as §1

SMILES	IC50 (human recombinant HDAC1)	HDAC6 Selectivity (fold) (human recombinant HDAC6)	IC50 (human recombinant HDAC6)
O=C(C1CN(C2CCC2)C1)N(Cc1cn2ccc(-c3nnc(C(F)F)o3)cc2n1)c1ccccc1 [Compound 4162, 1-cyclobutyl-N-((7-(5-(difluoromethyl)-1,3,4-oxadiazol-2-yl)imidazo[1,2-a]pyridin-2-yl)methyl)-N-phenylazetidine-3-carboxamide]	> 50000 nM	140 fold	358 nM
O=C(C1CN(C2COC2)C1)N(Cc1cn2ccc(-c3nnc(C(F)F)o3)cc2n1)c1ccccc1 [Compound 4163, N-((7-(5-(difluoromethyl)-1,3,4-oxadiazol-2-yl)imidazo[1,2-a]pyridin-2-yl)methyl)-1-(oxetan-3-yl)-N-phenylazetidine-3-carboxamide]	> 50000 nM	122 fold	410 nM
O=C(C1CN(C2CCCCC2)C1)N(Cc1cn2ccc(-c3nnc(C(F)F)o3)cc2n1)c1ccccc1 [Compound 4164, 1-cyclohexyl-N-((7-(5-(difluoromethyl)-1,3,4-oxadiazol-2-yl)imidazo[1,2-a]pyridin-2-yl)methyl)-N-phenylazetidine-3-carboxamide]	> 50000 nM	147 fold	340 nM
O=C(C1CN(C2CCOCC2)C1)N(Cc1cn2ccc(-c3nnc(C(F)F)o3)cc2n1)c1ccccc1 [Compound 4165, N-((7-(5-(difluoromethyl)-1,3,4-oxadiazol-2-yl)imidazo[1,2-a]pyridin-2-yl)methyl)-N-phenyl-1-(tetrahydro-2H-pyran-4-yl) azetidine-3-carboxamide]	> 50000 nM	121 fold	413 nM
O=C(C1CN(C2CCC(F)(F)CC2)C1)N(Cc1cn2ccc(-c3nnc(C(F)F)o3)cc2n1)c1ccccc1 [Compound 4166, 1-(4,4-difluorocyclohexyl)-N-((7-(5-(difluoromethyl)-1,3,4-oxadiazol-2-yl)imidazo[1,2-a]pyridin-2-yl)methyl)-N-phenylazetidine-3-carboxamide]	> 50000 nM	197 fold	254 nM
CC(=O)N1CC(C(=O)N(Cc2cn3ccc(-c4nnc(C(F)F)o4)cc3n2)c2ccccc2)C1 [Compound 4167, 1-acetyl-N-((7-(5-(difluoromethyl)-1,3,4-oxadiazol-2-yl)imidazo[1,2-a]pyridine-2-yl)methyl)-N-phenylazetidine-3-carboxamide]	> 50000 nM	112 fold	447 nM
CCC(=O)N1CC(C(=O)N(Cc2cn3ccc(-c4nnc(C(F)F)o4)cc3n2)c2ccccc2)C1 [Compound 4168, N-((7-(5-(difluoromethyl)-1,3,4-oxadiazol-2-yl)imidazo[1,2-a]pyridin-2-yl)methyl)-N-phenyl-1-propionylazetidine-3-carboxamide]	> 50000 nM	125 fold	400 nM
O=C(CO)N1CC(C(=O)N(Cc2cn3ccc(-c4nnc(C(F)F)o4)cc3n2)c2ccccc2)C1 [Compound 4169, N-((7-(5-(difluoromethyl)-1,3,4-oxadiazol-2-yl)imidazo[1,2-a]pyridin-2-yl)methyl)-1-(2-hydroxyacetyl)-N-phenylazetidine-3-carboxamide]	> 50000 nM	61 fold	815 nM
O=C(C1CCC1)N1CC(C(=O)N(Cc2cn3ccc(-c4nnc(C(F)F)o4)cc3n2)c2ccccc2)C1 [Compound 4170, 1-(cyclobutanecarbonyl)-N-((7-(5-(difluoromethyl)-1,3,4-oxadiazol-2-yl)imidazo[1,2-a]pyridine-2-yl)methyl)-N-phenylazetidine-3-carboxamide]	> 50000 nM	144 fold	347 nM
O=C(C1COC1)N1CC(C(=O)N(Cc2cn3ccc(-c4nnc(C(F)F)o4)cc3n2)c2ccccc2)C1 [Compound 4171, N-((7-(5-(difluoromethyl)-1,3,4-oxadiazol-2-yl)imidazo[1,2-a]pyridin-2-yl)methyl)-1-(oxetan-3-carbonyl)-N-phenylazetidine-3-carboxamide]	> 50000 nM	141 fold	355 nM
O=C(C1CN(C(=O)C(F)(F)F)C1)N(Cc1cn2ccc(-c3nnc(C(F)F)o3)cc2n1)c1ccccc1 [Compound 4172, N-((7-(5-(difluoromethyl)-1,3,4-oxadiazol-2-yl)imidazo[1,2-a]pyridin-2-yl)methyl)-N-phenyl-1-(2,2,2-trifluoroacetyl) azetidine-3-carboxamide]	> 50000 nM	184 fold	272 nM
CS(=O)(=O)N1CC(C(=O)N(Cc2cn3ccc(-c4nnc(C(F)F)o4)cc3n2)c2ccccc2)C1 [Compound 4173, N-((7-(5-(difluoromethyl)-1,3,4-oxadiazol-2-yl)imidazo[1,2-a]pyridin-2-yl)methyl)-1-(methylsulfonyl)-N-phenylazetidine-3-carboxamide]	> 50000 nM	160 fold	312 nM
COC(=O)N1CC(C(=O)N(Cc2cn3ccc(-c4nnc(C(F)F)o4)cc3n2)c2ccccc2)C1 [Compound 4174, methyl 3-(((7-(5-(difluoromethyl)-1,3,4-oxadiazol-2-yl)imidazo[1,2-a]pyridin-2-yl)methyl)(phenyl)carbamoyl) azetidine-1-carboxylate]	> 50000 nM	168 fold	298 nM
CN(C)C(=O)N1CC(C(=O)N(Cc2cn3ccc(-c4nnc(C(F)F)o4)cc3n2)c2ccccc2)C1 [Compound 4175, N3-((7-(5-(difluoromethyl)-1,3,4-oxadiazol-2-yl)imidazo[1,2-a]pyridin-2-yl)methyl)-N1,N1-dimethyl-N3-phenylazetidine-1,3-dicarboxamide]	> 50000 nM	131 fold	381 nM
O=C(C1CN(c2ccccn2)C1)N(Cc1cn2ccc(-c3nnc(C(F)F)o3)cc2n1)c1ccccc1 [Compound 4176, N-((7-(5-(difluoromethyl)-1,3,4-oxadiazol-2-yl)imidazo[1,2-a]pyridin-2-yl)methyl)-N-phenyl-1-(pyridin-2-yl) azetidine-3-carboxamide]	> 50000 nM	199 fold	251 nM
O=C(C1CN(c2ncccn2)C1)N(Cc1cn2ccc(-c3nnc(C(F)F)o3)cc2n1)c1ccccc1 [Compound 4177, N-((7-(5-(difluoromethyl)-1,3,4-oxadiazol-2-yl)imidazo[1,2-a]pyridin-2-yl)methyl)-N-phenyl-1-(pyrimidin-2-yl) azetidine-3-carboxamide]	> 50000 nM	205 fold	244 nM
CN1CC(C(=O)N(Cc2cn3ccc(-c4nnc(C(F)F)o4)cc3n2)c2cccc(F)c2)C1 [Compound 4188, N-((7-(5-(difluoromethyl)-1,3,4-oxadiazol-2-yl)imidazo[1,2-a]pyridin-2-yl)methyl)-N-(3-fluorophenyl)-1-methylazetidine-3-carboxamide]	> 50000 nM	134 fold	373 nM
CCN1CC(C(=O)N(Cc2cn3ccc(-c4nnc(C(F)F)o4)cc3n2)c2cccc(F)c2)C1 [Compound 4189, N-((7-(5-(difluoromethyl)-1,3,4-oxadiazol-2-yl)imidazo[1,2-a]pyridin-2-yl)methyl)-1-ethyl-N-(3-fluorophenyl) azetidine-3-carboxamide]	> 50000 nM	315 fold	159 nM
CC(C)N1CC(C(=O)N(Cc2cn3ccc(-c4nnc(C(F)F)o4)cc3n2)c2cccc(F)c2)C1 [Compound 4190, N-((7-(5-(difluoromethyl)-1,3,4-oxadiazol-2-yl)imidazo[1,2-a]pyridin-2-yl)methyl)-N-(3-fluorophenyl)-1-isopropylazetidine-3-carboxamide]	> 50000 nM	395 fold	126 nM
